One data set has as its target T1, PI3Kalpha (Homo sapiens, UniProt P42336).
T1 construct: partly as full-length kinases, partly as shortened fragments, but at least consisting of the functional kinase domains; purchased Upstate 14-602
In words: Cell-free kinase assay (ALPHA technology), PI3Kalpha. Format: biochemical. As to conditions: at 100 μM ATP; recombinant human kinase. As for the experimental part: The inhibitory effect of the compounds according to the invention was tested on various serine/threonine, tyrosine and lipid kinases in enzymatic assays. Recombinant human kinases such as, for example, Erk2, PI3Kalpha and others were used in this case, partly as full-length kinases, partly as shortened fragments, but at least consisting of the functional kinase domains. The commercial kinase proteins (Proqinase, Upstate) were used as recombinant fusion proteins with GST (glutathion-S-transferase) or His-Tag. Depending on the type of substrate, the various kinase reactions were quantified by means of suitable ALPHA™ beads (Perkin-Elmer).
The substance testing is described in detail hereinafter for the Erk assay. To determine the IC50 value, the potential inhibitor substances were investigated in 10 semi-logarithmically graded concentrations of 3.16 nM-100 μM.
b) PI3K-ALPHAs (e.g. PI3Kalpha): the test substance, 1 ng PI3Kalpha (#14-602, Upstate), 100 μM ATP and 20 μM PIP2 substrate (#64910, Cayman Chemicals) were incubated on a 384-well Optiplate (Perkin-Elmer) for 1 h in 50 mM Hepes, 50 mM NaCl, 5 mM MgCl2, 0.05% Chaps, 5 mM DTT at pH 7.4. The kinase reaction was then stopped by adding ALPHA bead mixes (10 μg/ml, #6760603/Perkin-Elmer) pre-incubated with 1 nM GST:Grp1 fusion protein (Upstate) and 15 nM biotinylated PIP3 (#10009531, Cayman Chemicals) in 50 mM Hepes, 50 mM NaCl, 50 mM EDTA and 0.1% BSA and left to stand overnight.
The fluorescence was detected the following morning in a Envision plate reader (Perkin-Elmer).
The %-inhibition values per substance concentration were calculated by means of the following formula from the raw data determined in the Envision plate reader:
Eight determinations were made for each control and two for the substance samples. The 0% control either contains no ATP or no substrate, the 100% control (fully active kinase) contains no test substance. The IC50 values were determined using GraphPadPrism.

The test system of a further data set is Hct116. In words: XTT assay, anti-proliferative effect. Particulars: Homo sapiens, HCT-116; Hct116 cells, ~48 h incubation. The data set is classed as cell-based. As for the experimental part:
The principle of this test is based on the intracellular reduction of the tetrazolium dye XTT (sodium 3′-[1-(phenylaminocarbonyl)-3,4-tetrazolium]-bis(4-methoxy-6-nitro)benzene sulfonic acid, Sigma) to a formazan dye by mitochondrial dehydrogenases. The dye is only formed by metabolically active cells and its photometrically measurable intensity is a quantitative indicator for the presence of living cells. The reduction of dye formation by incubation of the cells with substances serves as a parameter for the anti-proliferative effect.
The tumour cell lines (ATCC) were injected into 96-well microtitre plates in a defined cell number (1250 cells/well for Hct116) and then incubated overnight in an incubator at 37° C., 5% CO2 and 95% air humidity. The test substances were prepared as stock solutions (10 mM) in DMSO. To determine the EC50 values the potential inhibitor substances were added to the cells in half-logarithmically graded dilutions, resulting in final concentrations of 1.58 nM-50 μM. The cell plates were then incubated for ˜48 h in an incubator at 37° C., 5% CO2 and 95% air humidity.
For the detection reaction the substrate XTT was mixed with PMS (N-Methyl dibenzopyrazine methylsulfate, Sigma) and added to the cells so that a final concentration of 325 μg XTT/ml and 2.5 μg PMS/ml was obtained. It was then incubated for 3 h at 37° C., 95% air humidity. The formazan salt formed by the cellular dehydrogenases could then be quantified by adsorption at 490 nm.
The % inhibition value was evaluated by means of the following formula from the values for the optical densities measured in each case at 490 nm:
Eight determinations were made for each control and two for the substance samples. The 0% control contains no cells, the 100% control (proliferation control) contains no test substance. The EC50 values were determined using GraphPadPrism.
A general note: Tetrazolium assays rely on reduction of a dye to a coloured formazan, in cell work by metabolically active cells.

The target in the next data set is T2, Erk2.
T2 construct: partly as full-length kinases, partly as shortened fragments, but at least consisting of the functional kinase domains; purchased Upstate 14-173
T2 sequence (P63085 2-358 limits assumed): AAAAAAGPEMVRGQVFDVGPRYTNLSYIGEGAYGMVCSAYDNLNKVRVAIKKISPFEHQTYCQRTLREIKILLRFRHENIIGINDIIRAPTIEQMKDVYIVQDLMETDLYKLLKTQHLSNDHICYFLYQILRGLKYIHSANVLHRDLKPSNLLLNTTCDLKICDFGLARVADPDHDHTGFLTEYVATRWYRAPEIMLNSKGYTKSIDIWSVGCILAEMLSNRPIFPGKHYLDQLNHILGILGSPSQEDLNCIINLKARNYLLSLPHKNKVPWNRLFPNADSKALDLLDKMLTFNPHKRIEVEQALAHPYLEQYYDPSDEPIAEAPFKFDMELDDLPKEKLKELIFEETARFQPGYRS
In words: Cell-free kinase assay (ALPHA technology), Erk2. The data set is classed as biochemical. Particulars: at 10 μM ATP; recombinant human kinase.

By IC50 is commonly meant the point on the concentration scale where inhibition reaches its midpoint. As a reminder, the EC50 is the midpoint of the concentration-response curve. Low readings indicate greater potency, high ones weaker potency. Usually melting point stands for the temperature, or range, at which the solid turns liquid.

Structures are written as SMILES.

T1 sequence (P42336 whole entry, the tested form may be a part): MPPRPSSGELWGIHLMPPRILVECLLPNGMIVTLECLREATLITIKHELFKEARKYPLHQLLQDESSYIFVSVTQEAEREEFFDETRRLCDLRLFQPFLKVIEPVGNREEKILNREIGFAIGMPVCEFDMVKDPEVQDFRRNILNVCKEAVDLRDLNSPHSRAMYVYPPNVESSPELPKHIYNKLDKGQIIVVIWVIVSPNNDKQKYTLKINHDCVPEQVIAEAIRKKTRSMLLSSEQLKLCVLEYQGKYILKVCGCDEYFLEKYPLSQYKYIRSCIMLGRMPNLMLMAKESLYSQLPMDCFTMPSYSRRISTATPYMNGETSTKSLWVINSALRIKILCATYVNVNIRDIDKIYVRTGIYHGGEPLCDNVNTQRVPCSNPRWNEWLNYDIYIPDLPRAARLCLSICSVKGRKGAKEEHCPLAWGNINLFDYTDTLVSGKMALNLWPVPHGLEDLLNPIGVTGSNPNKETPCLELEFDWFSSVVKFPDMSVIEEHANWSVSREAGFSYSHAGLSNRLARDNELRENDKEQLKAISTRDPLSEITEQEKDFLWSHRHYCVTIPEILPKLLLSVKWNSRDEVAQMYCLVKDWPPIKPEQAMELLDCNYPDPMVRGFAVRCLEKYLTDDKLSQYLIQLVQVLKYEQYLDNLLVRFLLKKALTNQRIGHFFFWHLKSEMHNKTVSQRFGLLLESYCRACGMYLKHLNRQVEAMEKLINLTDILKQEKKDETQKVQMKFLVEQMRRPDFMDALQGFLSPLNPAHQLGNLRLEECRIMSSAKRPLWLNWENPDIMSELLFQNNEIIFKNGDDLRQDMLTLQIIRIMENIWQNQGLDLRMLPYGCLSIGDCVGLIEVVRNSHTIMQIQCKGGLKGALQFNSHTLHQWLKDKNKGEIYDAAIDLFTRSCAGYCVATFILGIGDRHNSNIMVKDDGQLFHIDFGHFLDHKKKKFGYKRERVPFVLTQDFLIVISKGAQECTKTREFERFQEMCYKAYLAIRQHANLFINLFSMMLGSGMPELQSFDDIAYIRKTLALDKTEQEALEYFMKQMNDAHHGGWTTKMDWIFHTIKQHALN
T1 sequence (P27986 whole entry partner, the tested form may be a part): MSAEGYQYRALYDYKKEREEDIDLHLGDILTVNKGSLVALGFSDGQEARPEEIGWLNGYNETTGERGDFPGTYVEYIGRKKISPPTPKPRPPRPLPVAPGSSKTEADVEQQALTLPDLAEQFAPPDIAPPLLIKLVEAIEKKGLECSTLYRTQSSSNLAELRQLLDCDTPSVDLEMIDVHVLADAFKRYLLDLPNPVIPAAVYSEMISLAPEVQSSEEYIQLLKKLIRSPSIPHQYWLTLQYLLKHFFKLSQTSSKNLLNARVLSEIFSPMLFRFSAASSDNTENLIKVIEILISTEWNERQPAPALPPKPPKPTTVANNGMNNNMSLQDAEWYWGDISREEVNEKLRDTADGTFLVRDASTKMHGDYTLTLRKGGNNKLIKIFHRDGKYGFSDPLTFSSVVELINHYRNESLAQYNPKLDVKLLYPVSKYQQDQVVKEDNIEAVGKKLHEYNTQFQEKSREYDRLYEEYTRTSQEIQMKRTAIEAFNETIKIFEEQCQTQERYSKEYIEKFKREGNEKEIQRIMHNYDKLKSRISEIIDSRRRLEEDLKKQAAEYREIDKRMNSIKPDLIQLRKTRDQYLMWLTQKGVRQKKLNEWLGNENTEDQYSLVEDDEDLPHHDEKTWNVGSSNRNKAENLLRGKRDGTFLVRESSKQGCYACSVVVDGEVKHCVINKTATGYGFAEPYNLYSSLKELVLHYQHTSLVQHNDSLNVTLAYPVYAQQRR

`CCNC(=S)Nc1ccc2ncc(-c3cnn(Cc4cccc(OC)c4F)c3)nc2n1` [Compound 29, 1-Ethyl-3-{3-[1-(2-fluoro-3-methoxy-benzyl)-1H-pyrazol-4-yl]-pyrido[2,3-b]pyrazin-6-yl}-thiourea] had a melting point of 215 to 220 °C. Also, the IC50 on PI3Kalpha is 112 nM. In the data set on Hct116, this compound showed a concentration for a half-maximal effect (EC50) of 2560 nM. Also, the IC50 on Erk2 was 492 nM.

These data come from US8912189B2, “Pyridopyrazine derivatives and their use” (Aeterna Zentaris GmbH, priority 2011, dated 2014).
